Assay results: patent publication US9572831B2, “Composition and method for sulfated non-anticoagulant low molecular weight heparins in cancer and tumor metastasis” (priority 2013, dated 2017)
Like-named read-outs stand apart in the source and are kept apart here.

Key:
253JBV bladder cells = experiment: Western blots of bladder cancer cell proteins; type: cell-based; conditions: 48 hour; Cisplatin 10 ug/ml, S-NACH 20 ug/ml, LMWH 20 ug/ml
Method: 253JBV bladder cells were cultured and treated [Control (PBS), Cisplatin (10 ug/ml), S-NACH (20 ug/ml), LMWH (20 ug/ml)] for 48 hour. Total proteins were collected to quantitate expression of the proteins using western blots.

MCF7-WT cells = experiment: Nanoparticle Dox formulations in mice with MCF7-WT tumors; type: in vivo; conditions: treatment begun 10 days after inoculation; n=8
Excerpt: Mice were inoculated with 1.4×10^7 MCF7-WT cells. […] Tumor volume measurements were obtained over time course shown. Values are mean tumor volume in mm^3±SEM, n=8 mice/group.

MCF7-R cells = experiment: Nanoparticle Dox formulations in mice with MCF7-R tumors; type: in vivo
Method: FIG. 20 depicts anti-tumor efficacy of nanoparticle formulations encapsulating Doxorubicin with and without LMWHs vs. un-encapsulated Doxorubicin in mice with MCF7-R Tumors, in accordance with embodiments of the present invention. […] Treatments, as shown in legend, were begun after tumors had reached a size of 50-100 mm^3. Tumor volumes were measured daily. Animals were euthanized when Controls reached a size of 2000 mm^3 (as per IACUC approval).
In vivo data using in mice xenograft (MCF-7R) are shown in Table 5 (amounts of doxorubicin and NACH injected in all cases were 0.625 mg/kg and 2.5 mg/kg body weight).

MPanc96-luc cells = type: in vivo, athymic nude mice; conditions: S-NACH 20 mg/kg s.c. daily, gemcitabine 100 mg/kg i.p. twice a week, 28 days
Method: MPanc96-luc cells were harvested as described above and were orthotopically implanted (2×10^5 cells in 50 μl PBS per mouse) in the pancreas of anesthetized athymic nude mice. Just before treatment initiation, animals (n=10 per group) were randomized by tumor mass detected by an in vivo imaging system (IVIS, described below). Heparin derivatives S-NACH at 20 mg/kg and tinzaparin at 5 mg/kg were administered subcutaneously daily. Gemcitabine at 100 mg/kg was injected intraperitoneally twice a week alone or in combination with either S-NACH or tinzaparin. All mice used for treatment response evaluations were euthanized after 28 days. See Table 2 for the protocol of the study. Imaging was performed once per week to monitor tumor growth. Mice bearing MPanc96-luc tumors were anaesthetized using isoflurane, injected subcutaneously with 50 μl D-luciferin (30 mg/ml), then imaged. Photographic and luminescence images were taken at constant exposure time. Xenogen IVIS® Living Image software version 3.2 was used to quantify non-saturated bioluminescence in regions of interest. Light emission between 5.5×10^6-7.0×10^10 photons was assumed to be indicative of viable luciferase-labeled tumor cells while emissions below this range were considered as background. Bioluminescence was quantified as photons/second for each region of interest. In vivo tumor kinetic growth and metastasis were monitored by signal intensity. Ex vivo imaging was performed to confirm the signal intensity in the tumors after the termination. All specimens were analyzed by histology for routine analysis. Specimens were fixed in 10% buffered formalin, processed routinely, and embedded in paraffin. Then, after fixation, the specimens were transferred into the embedding chambers to hold the specimens in position until the paraffin became solid to prevent further rotation. Four μm serial sections were cut, and then stained using haematoxylin and eosin. Sections were evaluated for various pathologic parameters using a light microscope (Leica, Buffalo Grove, Ill.).

[1] = Whole blood clotting times by Sonoclot Analyzer and TEG; type: in vivo; conditions: intravenous, 10 mg/kg, mice, n=5
Method: Two heparins, commercial formulation Enoxaparin and non-anticoagulant heparin (NACH) including S-NACH or S-SNACH were evaluated for their effects on coagulation. Whole blood clotting times were measured by the Sonoclot Analyzer (left panel) and by TEG (right panel); n=5.

[2] = system: intrinsic pathway of the coagulation cascade; experiment: APTT assay; type: biochemical
Method: Activated Partial Thromboplastin Time (aPTT) is sensitive to all factors in the intrinsic pathway of the coagulation cascade and the presence of heparin. The aPTT was measured for each of the 8 USP heparins, using the ACL 8000 Beckman Coulter coagulation analyzer and the Trinity Biotech Trini CLOT Automated aPTT assay kit (Berkeley Heights, N.J.). Additionally, aPTT was measured for heparin, LMWH, and S-NACH.

[3] = Mouse deaths over all experiments; type: in vivo, mice
Method: In the second experiment, a higher concentration of S-SNACH (20 mg/kg) was used. […] The percentile death of mice was high in the LMWH group and reached 6 animals (50%) at the end of the experiment due to internal bleeding after two invasive surgeries. At the end of all experiments, the percentile death among all groups was calculated and compared.
The average dose of LMWH for enoxaparin in humans is 1.0-1.5 mg/kg and relatively higher in mice. In the experiment performed in the present invention, 5-10 mg/kg was used for LMWH (tinzaparin) and as high as 20-100 mg/kg was used for SNACH.

For `N.N.[Cl][Pt][Cl]` [Cisplatin], the E-cadherin protein expression (253JBV bladder cells) was “increased” and the MMP-2 protein expression (253JBV bladder cells) was “reduced”.

In the case of `COc1cccc2c1C(=O)c1c(O)c3c(c(O)c1C2=O)C[C@@](O)(C(=O)CO)C[C@@H]3O[C@H]1C[C@H](N)[C@H](O)[C@H](C)O1` [Doxorubicin], the “tumor growth (tumor volume)” value (MCF7-WT cells) is reported as “effectively inhibited”, the “tumor volume over time” value (MCF7-R cells; FIG. 20 Panel A) is reported as “same pattern of tumor growth as untreated controls” and the “Tumor Mass” value (MCF7-R cells; doxorubicin 0.625 mg/kg, NACH 2.5 mg/kg body weight, mean) is reported as 1.3 g.

For `Nc1ccn([C@@H]2O[C@H](CO)[C@@H](O)C2(F)F)c(=O)n1` [Gemcitabine], the “tumor luciferin signal intensity” value (MPanc96-luc cells) was “reduced”, the tumor weights (MPanc96-luc cells) was “reduced” and the “tumor luciferin signal intensity” value (MPanc96-luc cells; listed as GEM) was “suppression of tumor signal intensity”.

For Enoxaparin, the “clot times (whole blood clotting time, time to clot initiation)” value [1] was “significantly prolonged”.

In the case of Heparin, the aPTT [2] is reported as “increased aPTT in a dose-dependent manner” and the “rate of death among the mice” value [3] is reported as “higher mortality”.
